From PubChem BioAssay AID2060342 (Molecular Pharmacology Branch, DTP, NCI, 2025)

System: 171881-019-R-J1-PDC multicell spheroid viability
Assay: Anticancer human tumor 171881-019-R-J1-PDC patient-derived invasive breast carcinoma cell line growth inhibition [IpAb]
Settings: for IC50: curve of first compound; for viability, T/C: stronger effect = lower value; active = viability on the fitted dose curve at most 10% of control; inactive = the rest
Outline: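 Spheroids of 60% malignant cells, 25% HUVEC and 15% MSC were exposed to targeted agents combined with ipatasertib or abemaciclib. Doses started at or near clinical Cmax (10 microM when unknown) and fell in half-log steps.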

[1] = second compound 0.01 µM, first compound 0.0316 µM
[2] = second compound 0.01 µM, first compound 0.1 µM
[3] = second compound 0.0316 µM, first compound 0.0316 µM
[4] = second compound 0.0316 µM, first compound 0.1 µM
[5] = second compound 0.1 µM, first compound 0.0316 µM
[6] = second compound 0.1 µM, first compound 0.1 µM
[7] = second compound 0.316 µM, first compound 0.0316 µM
[8] = second compound 0.316 µM, first compound 0.1 µM
[9] = second compound 1 µM, first compound 0.0316 µM
[10] = second compound 1 µM, first compound 0.1 µM
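Also: spheroids exposed to the agents for seven days before readout.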

C=CCn1c(=O)c2cnc(Nc3ccc(N4CCN(C)CC4)cc3)nc2n1-c1cccc(C(C)(C)O)n1 + CCN1CCN(Cc2ccc(Nc3ncc(F)c(-c4cc(F)c5nc(C)n(C(C)C)c5c4)n3)nc2)CC1
1000 nM: IC50 (second compound 0.0316 µM)
864 nM: IC50 (second compound 0.01 µM)
1660 nM: IC50 (second compound 0.1 µM)
inactive: viability, T/C [1] 88.8% | viability, T/C [2] 93.3% | viability, T/C (second compound 0.01 µM, first compound 0.316 µM) 109% | viability, T/C (second compound 0.01 µM, first compound 1 µM) 43.2% | viability, T/C (second compound 0.01 µM, first compound 3.16 µM) 30.3% | viability, T/C (second compound 0.01 µM, first compound 10 µM) 30.3% | viability, T/C [3] 116% | viability, T/C [4] 97.3% | viability, T/C (second compound 0.0316 µM, first compound 0.316 µM) 119% | viability, T/C (second compound 0.0316 µM, first compound 1 µM) 50% | viability, T/C (second compound 0.0316 µM, first compound 3.16 µM) 35% | viability, T/C (second compound 0.0316 µM, first compound 10 µM) 32% | viability, T/C [5] 110% | viability, T/C [6] 105% | viability, T/C (second compound 0.1 µM, first compound 0.316 µM) 126% | viability, T/C (second compound 0.1 µM, first compound 1 µM) 57.9% | viability, T/C (second compound 0.1 µM, first compound 3.16 µM) 42.7% | viability, T/C (second compound 0.1 µM, first compound 10 µM) 37.2% | viability, T/C [7] 131% | viability, T/C [8] 137% | viability, T/C (second compound 0.316 µM, first compound 0.316 µM) 134% | viability, T/C (second compound 0.316 µM, first compound 1 µM) 83.1% | viability, T/C (second compound 0.316 µM, first compound 3.16 µM) 57.1% | viability, T/C (second compound 0.316 µM, first compound 10 µM) 47.7% | viability, T/C [9] 150% | viability, T/C [10] 150% | viability, T/C (second compound 1 µM, first compound 0.316 µM) 149% | viability, T/C (second compound 1 µM, first compound 1 µM) 98.8% | viability, T/C (second compound 1 µM, first compound 3.16 µM) 78.7% | viability, T/C (second compound 1 µM, first compound 10 µM) 69.8%
> 10000 nM: IC50 (second compound 0.316 µM) | IC50 (second compound 1 µM)

CC(C)n1nc(-c2ccc3oc(N)nc3c2)c2c(N)ncnc21 + CCN1CCN(Cc2ccc(Nc3ncc(F)c(-c4cc(F)c5nc(C)n(C(C)C)c5c4)n3)nc2)CC1
5.98 nM: IC50 (second compound 0.0316 µM)
5.63 nM: IC50 (second compound 0.01 µM)
6.25 nM: IC50 (second compound 0.316 µM)
active: viability, T/C [1] 4.34% | viability, T/C [2] 2.21% | viability, T/C [3] 5.1% | viability, T/C [4] 2.53% | viability, T/C [5] 5.52% | viability, T/C [6] 2.76% | viability, T/C [7] 9.75% | viability, T/C [8] 3.47%
5.6 nM: IC50 (second compound 0.1 µM)
inactive: viability, T/C (second compound 0.01 µM, first compound 0.000316 µM) 99% | viability, T/C (second compound 0.01 µM, first compound 0.001 µM) 102% | viability, T/C (second compound 0.01 µM, first compound 0.00316 µM) 73.9% | viability, T/C (second compound 0.01 µM, first compound 0.01 µM) 25.7% | viability, T/C (second compound 0.0316 µM, first compound 0.000316 µM) 97.9% | viability, T/C (second compound 0.0316 µM, first compound 0.001 µM) 112% | viability, T/C (second compound 0.0316 µM, first compound 0.00316 µM) 80.5% | viability, T/C (second compound 0.0316 µM, first compound 0.01 µM) 24.8% | viability, T/C (second compound 0.1 µM, first compound 0.000316 µM) 114% | viability, T/C (second compound 0.1 µM, first compound 0.001 µM) 103% | viability, T/C (second compound 0.1 µM, first compound 0.00316 µM) 75.8% | viability, T/C (second compound 0.1 µM, first compound 0.01 µM) 24.3% | viability, T/C (second compound 0.316 µM, first compound 0.000316 µM) 131% | viability, T/C (second compound 0.316 µM, first compound 0.001 µM) 106% | viability, T/C (second compound 0.316 µM, first compound 0.00316 µM) 81.4% | viability, T/C (second compound 0.316 µM, first compound 0.01 µM) 28.5% | viability, T/C (second compound 1 µM, first compound 0.000316 µM) 140% | viability, T/C (second compound 1 µM, first compound 0.001 µM) 125% | viability, T/C (second compound 1 µM, first compound 0.00316 µM) 89.8% | viability, T/C (second compound 1 µM, first compound 0.01 µM) 48.6% | viability, T/C [9] 21.4% | viability, T/C [10] 10.4%
9.54 nM: IC50 (second compound 1 µM)
